Patent publication US9944602B2, “Piperidinone herbicides” (E. I. DU PONT DE NEMOURS AND COMPANY, priority 2014, dated 2018)

What was measured:
Type in all cases: in vivo
[1] = tested on: wheat (Triticum aestivum); assay: Test A postemergence wheat; conditions: 0 to 100 scale, 0 is no effect, 100 is complete control
In short: (§1)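 Visual injury rating, 0–100 scale (0 = no effect, 100 = complete control), versus untreated controls ~10 d after treatment in greenhouse. Pre: directed soil spray onto seeded loam/sand. Post: foliar spray at 2–10 cm, 1–2 leaf stage. Solvent-surfactant formulation.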

[2] = tested on: pigweed (Amaranthus retroflexus); assay: Test A preemergence pigweed; conditions: 0 to 100 scale, 0 no effect, 100 complete control
In short: as §1

[3] = tested on: galium (catchweed bedstraw, Galium aparine); assay: Test A postemergence galium; conditions: 0 to 100 scale, 0 is no effect, 100 is complete control
In short: as §1

[4] = tested on: foxtail, giant (giant foxtail, Setaria faberii); assay: Test A postemergence foxtail, giant; conditions: 0 to 100 scale, 0 is no effect, 100 is complete control
In short: as §1

rice (Oryza sativa) [5] = assay: Test C flooded paddy test rice; conditions: Table C, Flood, scale 0 to 100
Description: (§2) Plant species in the flooded paddy test consisted of rice (Oryza sativa), sedge, umbrella (small-flower umbrella sedge, Cyperus difformis), ducksalad (Heteranthera limosa), and barnyardgrass (Echinochloa crus-galli) grown to the 2-leaf stage for testing. At time of treatment, test pots were flooded to 3 cm above the soil surface, treated by application of test compounds directly to the paddy water, and then maintained at that water depth for the duration of the test. Treated plants and controls were maintained in a greenhouse for 13 to 15 d, after which time all species were compared to controls and visually evaluated. Plant response ratings, summarized in Table C, are based on a scale of 0 to 100 where 0 is no effect and 100 is complete control. A dash (-) response means no test result.

[6] = tested on: pigweed (Amaranthus retroflexus); assay: Test A postemergence pigweed; conditions: 0 to 100 scale, 0 is no effect, 100 is complete control
In short: as §1

corn (Zea mays) = assay: Test A postemergence corn; conditions: 0 to 100 scale, 0 is no effect, 100 is complete control
In short: as §1

[7] = tested on: barnyardgrass (Echinochloa crus-galli); assay: Test A preemergence barnyardgrass; conditions: 0 to 100 scale; for Barnyardgrass plant response rating: 0 no effect, 100 complete control
In short: as §1

[8] = tested on: foxtail, giant (giant foxtail, Setaria faberii); assay: Test A preemergence foxtail, giant; conditions: 0 to 100 scale, 0 no effect, 100 complete control
In short: as §1

[9] = tested on: sedge, umbrella (small-flower umbrella sedge, Cyperus difformis); assay: Test C flooded paddy test sedge, umbrella; conditions: Table C, Flood, scale 0 to 100
Description: as §2

[10] = tested on: ragweed (common ragweed, Ambrosia elatior); assay: Test A preemergence ragweed; conditions: 0 to 100 scale, 0 no effect, 100 complete control
In short: as §1

[11] = tested on: ragweed (common ragweed, Ambrosia elatior); assay: Test A postemergence ragweed; conditions: 0 to 100 scale, 0 is no effect, 100 is complete control
In short: as §1

[12] = tested on: barnyardgrass (Echinochloa crus-galli); assay: Test A postemergence barnyardgrass; conditions: 0 to 100 scale, 0 is no effect, 100 is complete control
In short: as §1

[13] = tested on: ryegrass, Italian (Italian ryegrass, Lolium multiflorum); assay: Test A postemergence ryegrass, Italian; conditions: 0 to 100 scale, 0 is no effect, 100 is complete control
In short: as §1

[14] = tested on: ducksalad (Heteranthera limosa); assay: Test C flooded paddy test ducksalad; conditions: Table C, Flood, scale 0 to 100
Description: as §2

kochia (Kochia scoparia) [15] = assay: Test A postemergence kochia; conditions: 0 to 100 scale, 0 is no effect, 100 is complete control
In short: as §1

[16] = tested on: blackgrass (Alopecurus myosuroides); assay: Test A postemergence blackgrass; conditions: 0 to 100 scale, 0 is no effect, 100 is complete control
In short: as §1

[17] = tested on: ryegrass, Italian (Italian ryegrass, Lolium multiflorum); assay: Test A preemergence ryegrass, Italian; conditions: 0 to 100 scale, 0 no effect, 100 complete control
In short: as §1

kochia (Kochia scoparia) [18] = assay: Test A preemergence kochia; conditions: 0 to 100 scale, 0 no effect, 100 complete control
In short: as §1

[19] = tested on: barnyardgrass (Echinochloa crus-galli); assay: Test C flooded paddy test barnyardgrass; conditions: Table C, Flood, scale 0 to 100
Description: as §2

[20] = tested on: sedge, umbrella (small-flower umbrella sedge, Cyperus difformis); assay: Test B flooded paddy test sedge, umbrella; conditions: Table B, Flood, 250 g ai/ha, scale 0 to 100
In short: (§3)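 Plants at 2-leaf stage in pots flooded 3 cm above soil; compounds applied directly into paddy water, depth kept throughout.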

[21] = tested on: ducksalad (Heteranthera limosa); assay: Test B flooded paddy test ducksalad; conditions: Table B, Flood, 250 g ai/ha, scale 0 to 100
In short: as §3

rice (Oryza sativa) [22] = assay: Test B flooded paddy test rice; conditions: Table B, Flood, 250 g ai/ha, scale 0 to 100
In short: as §3

[23] = tested on: barnyardgrass (Echinochloa crus-galli); assay: Test B flooded paddy test barnyardgrass; conditions: Table B, Flood, 250 g ai/ha, scale 0 to 100
In short: as §3

O=C1NCCC(c2ccc(C(F)(F)F)cc2)C1C(=O)Nc1ccccc1C(F)(F)F (racemic) [Compound 12]
0: Plant response rating, Wheat ([1]; 125 g ai/ha) | Plant response rating, Wheat ([1]; 500 g ai/ha) | Pigweed plant response rating ([2]; 125 g ai/ha) | Pigweed plant response rating ([2]; 500 g ai/ha) | Plant response rating, Galium ([3]; 125 g ai/ha) | Plant response rating, Galium ([3]; 500 g ai/ha) | Plant response rating (rice (Oryza sativa) [5]; 125 g ai/ha) | Plant response rating (rice (Oryza sativa) [5]; 250 g ai/ha) | Plant response rating (rice (Oryza sativa) [5]; 500 g ai/ha) | Plant response rating (rice (Oryza sativa) [5]; 1000 g ai/ha) | Plant response rating, Pigweed ([6]; 125 g ai/ha) | Plant response rating, Pigweed ([6]; 500 g ai/ha) | Plant response rating, Corn (corn (Zea mays); 125 g ai/ha) | Plant response rating, Corn (corn (Zea mays); 500 g ai/ha) | Plant response rating ([9]; 125 g ai/ha) | Plant response rating ([9]; 250 g ai/ha) | Ragweed plant response rating ([10]; 125 g ai/ha) | Ragweed plant response rating ([10]; 500 g ai/ha) | Plant response rating, Ragweed ([11]; 125 g ai/ha) | Plant response rating, Ragweed ([11]; 500 g ai/ha) | Plant response rating, Ryegrass, Italian ([13]; 125 g ai/ha) | Plant response rating, Ryegrass, Italian ([13]; 500 g ai/ha) | Plant response rating ([14]; 125 g ai/ha) | Plant response rating, Kochia (kochia (Kochia scoparia) [15]; 125 g ai/ha) | Plant response rating, Kochia (kochia (Kochia scoparia) [15]; 500 g ai/ha) | Plant response rating, Blackgrass ([16]; 125 g ai/ha) | Plant response rating, Blackgrass ([16]; 500 g ai/ha) | Ryegrass, Italian plant response rating ([17]; 125 g ai/ha) | Ryegrass, Italian plant response rating ([17]; 500 g ai/ha) | Kochia plant response rating (kochia (Kochia scoparia) [18]; 125 g ai/ha) | Kochia plant response rating (kochia (Kochia scoparia) [18]; 500 g ai/ha) | Plant response rating ([19]; 125 g ai/ha)
60: Plant response rating, Foxtail, Giant ([4]; 500 g ai/ha) | Plant response rating, Barnyardgrass ([12]; 500 g ai/ha)
70: Plant response rating, Barnyardgrass ([7]; 500 g ai/ha, 0 is no effect, 100 is complete control) | Foxtail, Giant plant response rating ([8]; 500 g ai/ha)
10: Plant response rating ([9]; 500 g ai/ha)
100: Plant response rating ([14]; 1000 g ai/ha)
75: Plant response rating ([14]; 500 g ai/ha)
25: Plant response rating ([9]; 1000 g ai/ha) | Plant response rating ([19]; 1000 g ai/ha)
35: Plant response rating ([14]; 250 g ai/ha)
15: Plant response rating ([19]; 250 g ai/ha)
20: Plant response rating, Foxtail, Giant ([4]; 125 g ai/ha) | Barnyardgrass plant response rating ([7]; 125 g ai/ha) | Foxtail, Giant plant response rating ([8]; 125 g ai/ha) | Plant response rating, Barnyardgrass ([12]; 125 g ai/ha) | Plant response rating ([19]; 500 g ai/ha)

O=C(Nc1ccccc1C(F)(F)F)C1C(=O)N(Cc2ccccc2)CCC1c1ccc(F)cc1 (stereo not drawn) [Compound 51]
0: Plant response rating [20] | Plant response rating, Wheat ([1]; 125 g ai/ha) | Plant response rating, Wheat ([1]; 500 g ai/ha) | Plant response rating [21] | Pigweed plant response rating ([2]; 125 g ai/ha) | Pigweed plant response rating ([2]; 500 g ai/ha) | Plant response rating, Galium ([3]; 125 g ai/ha) | Plant response rating, Galium ([3]; 500 g ai/ha) | Plant response rating, Foxtail, Giant ([4]; 125 g ai/ha) | Plant response rating, Foxtail, Giant ([4]; 500 g ai/ha) | Plant response rating, Pigweed ([6]; 125 g ai/ha) | Plant response rating, Pigweed ([6]; 500 g ai/ha) | Plant response rating, Corn (corn (Zea mays); 125 g ai/ha) | Plant response rating, Corn (corn (Zea mays); 500 g ai/ha) | Barnyardgrass plant response rating ([7]; 125 g ai/ha) | Barnyardgrass plant response rating ([7]; 500 g ai/ha) | Foxtail, Giant plant response rating ([8]; 125 g ai/ha) | Foxtail, Giant plant response rating ([8]; 500 g ai/ha) | Ragweed plant response rating ([10]; 125 g ai/ha) | Ragweed plant response rating ([10]; 500 g ai/ha) | Plant response rating (rice (Oryza sativa) [22]) | Plant response rating, Ragweed ([11]; 125 g ai/ha) | Plant response rating, Ragweed ([11]; 500 g ai/ha) | Plant response rating, Barnyardgrass ([12]; 125 g ai/ha) | Plant response rating, Barnyardgrass ([12]; 500 g ai/ha) | Plant response rating, Ryegrass, Italian ([13]; 125 g ai/ha) | Plant response rating, Ryegrass, Italian ([13]; 500 g ai/ha) | Plant response rating, Kochia (kochia (Kochia scoparia) [15]; 125 g ai/ha) | Plant response rating, Kochia (kochia (Kochia scoparia) [15]; 500 g ai/ha) | Plant response rating, Blackgrass ([16]; 125 g ai/ha) | Plant response rating, Blackgrass ([16]; 500 g ai/ha) | Plant response rating [23] | Ryegrass, Italian plant response rating ([17]; 125 g ai/ha) | Ryegrass, Italian plant response rating ([17]; 500 g ai/ha) | Kochia plant response rating (kochia (Kochia scoparia) [18]; 125 g ai/ha) | Kochia plant response rating (kochia (Kochia scoparia) [18]; 500 g ai/ha)

O=C1NCC[C@@H](c2ccc(C(F)(F)F)cc2)[C@@H]1C(=O)Nc1ccc(F)c(F)c1F [Compound 55]
0: Plant response rating [20] | Plant response rating, Wheat ([1]; 125 g ai/ha) | Plant response rating, Wheat ([1]; 500 g ai/ha) | Plant response rating [21] | Pigweed plant response rating ([2]; 125 g ai/ha) | Pigweed plant response rating ([2]; 500 g ai/ha) | Plant response rating, Galium ([3]; 125 g ai/ha) | Plant response rating, Galium ([3]; 500 g ai/ha) | Plant response rating, Foxtail, Giant ([4]; 125 g ai/ha) | Plant response rating, Foxtail, Giant ([4]; 500 g ai/ha) | Plant response rating, Pigweed ([6]; 125 g ai/ha) | Plant response rating, Pigweed ([6]; 500 g ai/ha) | Plant response rating, Corn (corn (Zea mays); 125 g ai/ha) | Plant response rating, Corn (corn (Zea mays); 500 g ai/ha) | Barnyardgrass plant response rating ([7]; 125 g ai/ha) | Barnyardgrass plant response rating ([7]; 500 g ai/ha) | Foxtail, Giant plant response rating ([8]; 125 g ai/ha) | Foxtail, Giant plant response rating ([8]; 500 g ai/ha) | Ragweed plant response rating ([10]; 125 g ai/ha) | Ragweed plant response rating ([10]; 500 g ai/ha) | Plant response rating (rice (Oryza sativa) [22]) | Plant response rating, Ragweed ([11]; 125 g ai/ha) | Plant response rating, Ragweed ([11]; 500 g ai/ha) | Plant response rating, Barnyardgrass ([12]; 125 g ai/ha) | Plant response rating, Barnyardgrass ([12]; 500 g ai/ha) | Plant response rating, Ryegrass, Italian ([13]; 125 g ai/ha) | Plant response rating, Ryegrass, Italian ([13]; 500 g ai/ha) | Plant response rating, Kochia (kochia (Kochia scoparia) [15]; 125 g ai/ha) | Plant response rating, Kochia (kochia (Kochia scoparia) [15]; 500 g ai/ha) | Plant response rating, Blackgrass ([16]; 125 g ai/ha) | Plant response rating, Blackgrass ([16]; 500 g ai/ha) | Plant response rating [23] | Ryegrass, Italian plant response rating ([17]; 125 g ai/ha) | Ryegrass, Italian plant response rating ([17]; 500 g ai/ha) | Kochia plant response rating (kochia (Kochia scoparia) [18]; 125 g ai/ha) | Kochia plant response rating (kochia (Kochia scoparia) [18]; 500 g ai/ha)
